One test has as its system β-hematin formation. It is filed as biochemical. Conditions: for IC50: read-out: β-hematin inhibition IC50, NP-40 detergent mediated assay.
Test [1] deals with NF54 strain of P. falciparum. As to the kind of experiment: parasite growth inhibition, chloroquine-sensitive NF54 strain cultured in vitro. The test is classed as cell-based, Plasmodium falciparum.
For test [2], the system named is hemozoin formation in NF54 strain of P. falciparum. As to the kind of experiment: cellular heme fractionation assay. Conditions: NF54, 32 h incubation, drug added to early ring stage parasites. The test is classed as cell-based, Plasmodium falciparum.
Test [3] deals with Dd2 strain of P. falciparum. The test can be described thus: parasite growth inhibition, chloroquine-resistant Dd2 strain. The test is classed as cell-based, Plasmodium falciparum.
The subject of test [4] is Chinese hamster ovarian, CHO, cells. As to the kind of experiment: cytotoxicity against mammalian cells. It is filed as cell-based.
[5] abbreviates: read-out: NF54 malaria parasite growth inhibition IC50, chloroquine-sensitive NF54 strain, LDH method of Makler et al.

We go through six compounds from PMC6232849 (European journal of medicinal chemistry, 2018).

Read-outs that look alike come from different tables or passages of the source.

Broadly, the IC50 is the midpoint of a concentration-inhibition curve.

`O=C(Nc1ccc(-c2nc3ccccc3n2C(=O)c2ccccc2)cc1)c1cccc(Br)c1` [Compound 26, N-(4-(1H-Benzoyl-benzo[d]imidazole-2-yl)phenyl)-3-bromobenzamide]: the IC50 in the test on β-hematin formation was determined as 15600 ± 500 nM; in test [1] (setting [5]), 2600 ± 600 nM.

As to `O=C(Nc1ccc(-c2nc3ccccc3[nH]2)cc1)c1cncc(Br)c1` [Compound 5, N-(4-(1H-Benzo[d]imidazole-2-yl)phenyl)-5-bromonicotinamide], in test [2], the “change in freely exchangeable heme in the parasite cell” value is recorded as “corresponding increase”, the “change in hemozoin in the parasite cell” value was “large decrease” and the “change in undigested hemoglobin in the parasite cell” value is recorded as “much smaller (non-significant) increase”. The “parasite growth inhibition activity (in words)” value in test [1] was “sub-micromolar”.

`CCN(CC)CCCC(C)Nc1ccnc2cc(Cl)ccc12` (stereo not drawn) [Chloroquine, reference compound]: the IC50 was found to be 16 ± 6 nM in test [1] (Plasmodium falciparum, NF54, read-out: IC50 NF54); 16 ± 6 nM in test [1] (Plasmodium falciparum, NF54, read-out: NF54 malaria parasite growth inhibition IC50); 150 ± 30 nM in test [3] (Plasmodium falciparum, DD2, read-out: IC50 Dd2).

In the case of `O=C(Nc1ccc(-c2nc3ccccc3[nH]2)cc1)c1cc(Cl)nc(Cl)c1` [Compound 12, N-(4-(1H-Benzo[d]imidazole-2-yl)phenyl)-2,6-dichloroisonicotinamide], the “parasite growth inhibition activity (in words)” value in test [1] is listed as “sub-micromolar”.

In the case of “N-(4-(1H-Benzo[d]imidazole-2-yl)phenyl)-3-(trifluoromethyl)nicotinamide [Compound 9]”, the “SI (Dd2) (Selectivity index = IC50 (CHO)/IC50 (Dd2))” value in test [4] (CHO versus Dd2) came out at 32. In test [4] (CHO versus NF54), the “SI (NF54) (Selectivity index = IC50 (CHO)/IC50 (NF54))” value is listed as 44. Moreover, the half-inhibitory concentration (IC50) turned out to be 35000 ± 4000 nM in test [4] (read-out: IC50 CHO, cytotoxicity in CHO cells); 16600 ± 300 nM in the test with β-hematin formation; 800 ± 500 nM in test [1] (read-out: IC50 NF54, chloroquine-sensitive NF54 strain (Table 2)); 800 ± 500 nM in test [1] (setting [5]); 1100 ± 370 nM in test [3] (read-out: IC50 Dd2, chloroquine-resistant Dd2 strain). Further, the “parasite growth inhibition activity (in words)” value in test [1] is recorded as “sub-micromolar”. Moreover, in test [3] (Dd2 versus NF54), the “RI (Resistance index = IC50 (Dd2)/IC50 (NF54))” value is listed as 1.4.

`O=C(Nc1ccc(-c2nc3ccccc3[nH]2)cc1)c1ccccc1` [Compound 2]: the “β-hematin inhibition activity (in words)” value in the test with β-hematin formation was “virtually inactive”. The “parasite growth inhibition activity (in words)” value in test [1] was “virtually inactive”.
